Like-named read-outs stand apart in the source and are kept apart here.
How the values were obtained:
5HT3-R = target: T1, 5HT3-R (Homo sapiens, UniProt P46098); test: Agonist potency at 5HT3-R; format: cell-based
T1 sequence (P46098 24-478): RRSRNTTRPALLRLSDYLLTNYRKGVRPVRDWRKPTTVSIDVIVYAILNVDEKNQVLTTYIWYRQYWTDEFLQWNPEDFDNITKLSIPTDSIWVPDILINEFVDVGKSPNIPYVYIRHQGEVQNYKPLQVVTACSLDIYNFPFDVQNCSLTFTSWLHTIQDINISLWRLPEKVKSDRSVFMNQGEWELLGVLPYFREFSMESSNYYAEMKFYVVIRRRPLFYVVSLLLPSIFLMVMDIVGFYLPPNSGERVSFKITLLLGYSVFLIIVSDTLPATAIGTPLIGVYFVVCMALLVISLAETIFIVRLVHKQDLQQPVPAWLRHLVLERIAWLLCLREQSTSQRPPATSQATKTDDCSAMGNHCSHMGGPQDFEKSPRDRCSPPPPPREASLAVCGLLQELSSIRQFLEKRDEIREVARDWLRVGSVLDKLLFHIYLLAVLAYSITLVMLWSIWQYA

α7-GlyR [1] = target: T2, α7-GlyR (Homo sapiens, UniProt P36544); test: cell-based
α4β2 nAChR = α4β2 nAChR (Homo sapiens, UniProt P17787+P43681); test: Agonist potency at α4β2 nAChR
α7-5HT3 [2] = target: T3, α7-5HT3 (Homo sapiens, UniProt P36544, M226I/T225I)
α7-GlyR [3] = target: T2, α7-GlyR
α7-5HT3 [4] = target: T3, α7-5HT3; details: for EC50: read-out: α7-5HT3 EC50
[5] = tested on: α7GlyR G175K / A298G mutant chimeric channels; format: cell-based, human
α7GABAc W298A (GABAA-ρ) = test: Agonist potency at α7GABAc channel with W298A (Table 7); format: cell-based, human; details: a7GABAc Q79G L141F W298A
α7^L131A-GlyR = target: T4, α7^L131A-GlyR (Homo sapiens, UniProt P36544, L131A); format: cell-based; details: over α7-GlyR
T4 construct: expressed in transfected cells

[6] = tested on: cortical neurons expressing PSAM^4-5HT3 HC; test: Chemogenetic activation of cortical neurons expressing PSAM^4-5HT3 HC; format: cell-based, mouse
Text: FIGS. 12A-12F show chemogenetic perturbation of cortical neuron activity. […] FIG. 12C) Cortical layer 2/3 neuron membrane properties were similar in PSAM^4-GlyR expressing neurons and intermingled untransfected control neurons. […] FIG. 12F) Cortical layer 2/3 neuron membrane properties are similar in PSAM^4-5HT3 HC expressing neurons and intermingled untransfected control neurons. Data are mean±SEM. Mann Whitney U-test, n.s. P>0.05, ***P<0.001.
Chemogenetic perturbation of cortical neuron activity was evaluated. […] Cortical layer 2/3 neuron membrane properties were similar in PSAM^4-GlyR expressing neurons and intermingled untransfected control neurons. […] Cortical layer 2/3 neuron membrane properties are similar in PSAM^4-5HT3 HC expressing neurons and intermingled untransfected control neurons. See, e.g., FIG. 12.

[7] = tested on: mice expressing PSAM^4-GlyR unilaterally in SNr; test: Unilateral SNr silencing rotation assay; format: in vivo, mouse
[8] = read-out: Agonist potency; α7GlyR Q79G A298G G175K Y115F
[9] = read-out: Agonist potency; α7GlyR Q79G A298G Y115F K395 K396A
[10] = read-out: Agonist potency; α7GlyR Q79G G175K A298G
[11] = read-out: Agonist potency; α7GlyR Q79G W77F A298G
[12] = read-out: Agonist potency; α7GlyR R27D E41R Q79G Y115F

T2 sequence (P36544 with tags, fused parts or gaps): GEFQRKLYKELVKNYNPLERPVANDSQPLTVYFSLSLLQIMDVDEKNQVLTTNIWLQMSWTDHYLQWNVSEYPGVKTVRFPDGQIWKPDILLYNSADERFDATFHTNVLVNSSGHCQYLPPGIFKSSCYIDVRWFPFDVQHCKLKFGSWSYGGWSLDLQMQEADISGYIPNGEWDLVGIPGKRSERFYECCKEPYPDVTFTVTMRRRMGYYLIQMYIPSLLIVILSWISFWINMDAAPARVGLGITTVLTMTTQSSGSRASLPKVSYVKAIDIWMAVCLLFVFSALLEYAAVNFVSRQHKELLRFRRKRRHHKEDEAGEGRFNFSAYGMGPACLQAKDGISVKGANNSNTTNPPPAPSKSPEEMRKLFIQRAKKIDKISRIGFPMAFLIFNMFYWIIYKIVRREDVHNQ
Chain of α4β2 nAChR (P43681 29-627 limits assumed): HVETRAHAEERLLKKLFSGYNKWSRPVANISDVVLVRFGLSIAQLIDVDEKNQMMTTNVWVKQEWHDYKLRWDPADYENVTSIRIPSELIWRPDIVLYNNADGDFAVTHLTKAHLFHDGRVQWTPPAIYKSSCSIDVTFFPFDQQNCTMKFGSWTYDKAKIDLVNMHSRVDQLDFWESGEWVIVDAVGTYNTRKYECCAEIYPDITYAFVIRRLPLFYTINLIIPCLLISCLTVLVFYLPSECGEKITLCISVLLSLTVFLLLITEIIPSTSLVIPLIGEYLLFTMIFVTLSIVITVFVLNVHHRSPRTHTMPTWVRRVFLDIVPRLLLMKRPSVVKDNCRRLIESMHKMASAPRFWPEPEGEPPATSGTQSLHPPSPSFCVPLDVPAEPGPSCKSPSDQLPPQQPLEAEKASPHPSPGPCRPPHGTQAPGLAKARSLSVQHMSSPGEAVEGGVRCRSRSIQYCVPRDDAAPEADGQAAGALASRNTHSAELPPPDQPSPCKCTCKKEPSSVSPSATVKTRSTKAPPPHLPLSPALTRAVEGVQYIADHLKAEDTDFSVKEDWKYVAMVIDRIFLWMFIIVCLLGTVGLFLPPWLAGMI
Chain of α4β2 nAChR (P17787 26-502): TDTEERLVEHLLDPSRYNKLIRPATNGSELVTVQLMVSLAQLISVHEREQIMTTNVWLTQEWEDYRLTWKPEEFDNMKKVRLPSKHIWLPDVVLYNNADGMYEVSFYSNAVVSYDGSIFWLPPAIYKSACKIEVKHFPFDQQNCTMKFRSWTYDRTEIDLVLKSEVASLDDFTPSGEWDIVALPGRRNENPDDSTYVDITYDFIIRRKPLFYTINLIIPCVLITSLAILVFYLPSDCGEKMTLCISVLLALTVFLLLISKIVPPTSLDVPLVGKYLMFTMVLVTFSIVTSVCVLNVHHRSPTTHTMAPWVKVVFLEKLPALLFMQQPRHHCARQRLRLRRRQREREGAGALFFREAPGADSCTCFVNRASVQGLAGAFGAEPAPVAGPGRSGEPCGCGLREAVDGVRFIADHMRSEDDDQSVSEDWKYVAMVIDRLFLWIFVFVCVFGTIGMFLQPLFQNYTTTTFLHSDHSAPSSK
T3 sequence (P36544 with tags, fused parts or gaps T225I/M226I limits assumed): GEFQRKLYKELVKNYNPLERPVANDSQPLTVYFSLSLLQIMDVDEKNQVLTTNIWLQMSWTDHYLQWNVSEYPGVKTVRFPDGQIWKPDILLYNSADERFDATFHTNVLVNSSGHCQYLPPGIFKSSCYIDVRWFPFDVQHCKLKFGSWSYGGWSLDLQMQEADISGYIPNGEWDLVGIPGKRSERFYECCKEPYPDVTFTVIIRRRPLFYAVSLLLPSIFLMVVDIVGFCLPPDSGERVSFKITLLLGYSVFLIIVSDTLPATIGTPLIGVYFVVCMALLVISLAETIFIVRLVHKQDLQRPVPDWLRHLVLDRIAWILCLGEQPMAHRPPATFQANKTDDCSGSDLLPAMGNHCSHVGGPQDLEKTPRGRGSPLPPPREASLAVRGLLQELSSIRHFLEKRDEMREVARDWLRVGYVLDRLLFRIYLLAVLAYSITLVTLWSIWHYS
T4 sequence (P36544 with tags, fused parts or gaps L131A limits assumed): as the sequence (P36544 with tags, fused parts or gaps) above, with L109A counted along it

`Cc1nc2cc3c(cc2nc1-c1cccnc1)C1CNCC3C1` (stereo not shown) [compound 802] was tested, and the EC50 (5HT3-R; […], 5HT3-R, Table 10) was 1.5 µM, the EC50 (5HT3-R; potency for 5HT3-R) was over 1 µM and the EC50 (α7-GlyR [1]) was over 30 µM. It also gave an EC50 (α4β2 nAChR; […]) of over 30 µM and an EC50 (α4β2 nAChR; potency for α4β2 nAChR) of over 10 µM.
`Cn1c(=O)cnc2cc3c(cc21)C1CNCC3C1` (stereo not shown) [compound 792] was tested, and the EC50 (5HT3-R; 5HT3-R, Table 10) was 40.5 µM, the EC50 (α7-5HT3 [2]) was over 30 µM and the EC50 (α7-GlyR [3]) was over 30 µM.
`COc1cnc2cc3c(cc2n1)C1CNCC3C1` (stereo not shown) [compound 793] was tested, and the EC50 (5HT3-R) was 0.19 µM and the EC50 (α7-GlyR [3]) was 19 µM.
In the case of `S=C(Nc1ccc(Cl)cc1)NC1CN2CCC1CC2` (stereo not shown) [compound 0354], the partial agonist activity (α7-5HT3 [4]; HEK cells, Table 3) is reported as 1.4 partial.
`c1cncc(-c2nc3cc4c(cc3[nH]2)C2CNCC4C2)c1` (stereo not shown) [compound 786, 2-(pyridin-3-yl)-1,5,6,7,8,9-hexahydro-5,9-methanoimidazo[4′,5′:4,5]benzo[1,2-d]azepine] gave an EC50 (α7-5HT3 [2]) of over 100 µM and an EC50 (α7-GlyR [1]) of over 100 µM.
Compound `CCN(CC)c1nc2cc3c(cc2nc1C)C1CNCC3C1` (stereo not shown) [compound 795] has an EC50 (5HT3-R; 5HT3-R, Table 10) of 1.1 µM, an EC50 (5HT3-R; read-out: potency for 5HT3-R) of over 1 µM and an EC50 (α7-GlyR [1]) of over 30 µM. It also gave an EC50 (α4β2 nAChR; […], α4β2 nAChR, Table 10) of over 30 µM and an EC50 (α4β2 nAChR; potency for α4β2 nAChR) of over 10 µM.
Compound `Clc1ccc(C2CC3CCC2N3)cn1` (stereo not shown) [Epibatidine] has an EC50 ([5]; α7GlyR Q79G A298G G175K Y115F; read-out: Agonist potency) of 0.011 µM, an EC50 ([5]; α7GlyR Q79G A298G P216I; read-out: Agonist potency) of 0.05 µM and an EC50 ([5]; α7GlyR Q79G A298G Y115F K395 K396A; read-out: Agonist potency) of 0.15 µM. For the same compound, the EC50 ([5]; α7GlyR Q79G G175K A298G; read-out: Agonist potency) was 0.0023 µM, the EC50 ([5]; α7GlyR Q79G W77F A298G; read-out: Agonist potency) was 0.37 µM and the EC50 ([5]; α7GlyR R27D E41R Q79G Y115F; read-out: Agonist potency) was 0.267 µM. The EC50 (α7GABAc W298A (GABAA-ρ)) was 0.42 µM.
Work on `FC(F)(F)c1cnc2cc3c(cc2n1)C1CNCC3C1` (stereo not shown) [compound 788] yielded an EC50 (5HT3-R; 5HT3-R, Table 10) of 41 µM, an EC50 (α7-5HT3 [2]) of over 100 µM and an EC50 (α7-GlyR [1]) of over 100 µM. For the same compound, the EC50 (α4β2 nAChR; […], α4β2 nAChR, Table 10) was over 30 µM.
`COc1nc2cc3c(cc2nc1-c1ccccc1)C1CNCC3C1` (stereo not shown) [compound 789] gave an EC50 (5HT3-R; 5HT3-R, Table 10) of 0.51 µM, an EC50 (α7-5HT3 [2]) of over 100 µM and an EC50 (α7-GlyR [1]) of over 100 µM. For the same compound, the EC50 (α4β2 nAChR; […], α4β2 nAChR, Table 10) was over 30 µM.
`O=C(N[C@@H]1CN2CCC1CC2)c1c[nH]c2ccccc12` [compound 0676] was tested, and the EC50 (α7-5HT3 [4]; HEK cells, Table 3) was 0.03 µM.
In the case of `CN1C2CCCC1CC(NC(=O)c1nn(C)c3ccccc13)C2` (stereo not shown) [Granisetron, reference compound], the activation of channel (α7-5HT3 [4]) is reported as “does not activate”.
Work on `Cc1nc2cc3c(cc2n(C)c1=O)C1CNCC3C1` (stereo not shown) [compound 790] yielded an EC50 (5HT3-R; 5HT3-R, Table 10) of 4.3 µM, an EC50 (α7-5HT3 [2]) of over 100 µM and an EC50 (α7-GlyR [1]) of over 100 µM. For the same compound, the EC50 (α4β2 nAChR; […], α4β2 nAChR, Table 10) was over 30 µM.
`c1cnc2cc3c(cc2n1)[C@@H]1CNC[C@H]3C1` [Varenicline] gave an enhanced potency (α7^L131A-GlyR) of 8 fold, an EC50 [5, 8] of 2.37 µM and an EC50 [5, 9] of over 30 µM. The EC50 [5, 10] was 0.022 µM, the EC50 [5, 11] was 3.66 µM and the EC50 [5, 12] was over 30 µM. The EC50 (α7GABAc W298A (GABAA-ρ)) was 6.27 µM, the EC50 (5HT3-R; 5HT3-R, Table 10) was 1.4 µM and the “membrane potential and firing” value [6] was “depolarizes and elicits firing”. The rotation response ([7]; low doses, intraperitoneal, not in sham operated or EGFP-alone mice) was “elicit contraversive rotation”, the “doses at which circling contralateral to the silenced SNr was seen” value ([7]; mice) was “above 0.1 mpk” and the “improvement in potency over anti-nicotine activity” value ([7]; mice) was 10 fold. The “tachyphylaxis of the chemogenetic response” value ([7]; two doses separated by 5 hours) was “no tachyphylaxis”.
For `Cc1nc2cc3c(cc2nc1-c1ccncc1)C1CNCC3C1` (stereo not shown) [compound 803], the EC50 (5HT3-R; […], 5HT3-R, Table 10) was 0.75 µM, the EC50 (α7-GlyR [1]) was over 30 µM and the EC50 (α4β2 nAChR; […]) was 14 µM.
Compound `O=C(Nc1ccccc1)N[C@@H]1CN2CCC1CC2` [compound 0353] has an EC50 (α7-GlyR [3]) of 0.27 µM and an EC50 (α7-5HT3 [4]; HEK cells, Table 3) of 0.65 µM.
In the case of `c1ccn(-c2cnc3cc4c(cc3n2)C2CNCC4C2)c1` (stereo not shown) [compound 799], the EC50 (5HT3-R; 5HT3-R, Table 10) is reported as 11.7 µM, the EC50 (α7-GlyR [1]) is reported as over 100 µM and the EC50 (α4β2 nAChR; […], α4β2 nAChR, Table 10) is reported as 3.5 µM.
With `Cc1nc2cc3c(cc2nc1-n1ccnc1)C1CNCC3C1` (stereo not shown) [compound 798] the EC50 (5HT3-R; 5HT3-R, Table 10) was 1.1 µM, the EC50 (α7-5HT3 [2]) was over 30 µM and the EC50 (α7-GlyR [1]) was over 30 µM. The EC50 (α4β2 nAChR; […], α4β2 nAChR, Table 10) was 28 µM.
For `CN1C2CCC1CC(NC(=S)c1c[nH]c3ccccc13)C2` (stereo not shown) [compound 0542], the EC50 (α7-5HT3 [4]; HEK cells, Table 3) was 3.8 µM.
Work on `O=C(NC1CN2CCC1CC2)c1ccc(C(F)(F)F)nc1` (stereo not shown) [compound 0296] yielded an EC50 (α7-5HT3 [4]; HEK cells, Table 3) of over 100 µM.
In the case of `O=c1cccc2n1C[C@@H]1CNC[C@H]2C1` [Cytisine], the EC50 [5, 8] is reported as 4.6 µM, the EC50 ([5]; read-out: Agonist potency; α7GlyR Q79G A298G P216I) is reported as 5.5 µM and the EC50 [5, 9] is reported as over 30 µM. It also gave an EC50 [5, 10] of 0.134 µM, an EC50 [5, 11] of 14.1 µM and an EC50 [5, 12] of over 30 µM. The EC50 (α7GABAc W298A (GABAA-ρ)) was 13.3 µM.

Reference: patent US12247064B2, “Modified ligand-gated ion channels and methods of use” (Howard Hughes Medical Institute, priority 2017, dated 2025)
